Laboratory results as given in patent US11484529B2, “Desmethylanethole trithione derivatives for the treatment of diseases linked to mitochondrial reactive oxygen species (ROS) production” (OP2 Drugs, priority 2017, dated 2022).

Tests used:
H460 carcinoma cells = test: Transwell cell migration (metastatic activity); type: cell-based, human; details: 100 μM NAC, 16 hours
Description: Cell migration assays were performed in Transwells (Corning Inc., 8.0-μm pore size). For migration assay, 2·10^4 cells in serum-free medium were added to the upper wells. Media containing 10% FBS were added to the lower wells. Cells that migrated through the filter after 16 hours were stained with 0.2% crystal violet and counted using the software Image J.
The Transwell test of cell migration has been utilized for this assay and the migration of H460 carcinoma cells has been measured in the presence of two different concentrations of AOX (5 and 10 μM) and compared to the effect of 100 μM N-acetyl cystein (NAC) as a positive control of cytosolic ROS production (FIG. 25).

NAD(P)H oxidase = test: Non-mitochondrial ROS/H2O2 production by NAD(P)H oxidase (Amplex Red); type: biochemical; details: 10 to 100 μM; no mitochondria
Description: Rates of ROS/H2O2 production from heart mitochondria were assessed through the oxidation of the colorless, non-fluorescent indicator Amplex Red in the presence of exogenous horseradish peroxidase (HRP, EC 1.11.1.7, Sigma). H2O2 reacts with Amplex Red in a 1:1 stoichiometry, yielding the fluorescent compound resorufin (excitation: 560 nm; emission: 585 nm) which is stable once formed. Fluorescence was measured continuously with a spectro-fluorometer equipped with temperature control and stirring (SAFAS Xenius, Monaco). Isolated mitochondria (0.1 mg/mL) were incubated in the same experimental buffer than previously, supplemented with 15 μM Amplex Red and 10 μg/mL HRP. Glutamate (5 mM)/malate (2.5 mM) together with succinate (5 mM) were used as complex I and complex II substrates, respectively. Experiments were conducted under non-phosphorylating conditions in the presence of 15 μM atractyloside, i.e., under state IV conditions where […]. Afterwards, rotenone (1.5 μM), antimycin A (2 μM), and myxothiazol (0.2 μM) were sequentially added to inhibit the redox centers within the electron transfer chain (FIG. 2), namely sites IQ, IF (with rotenone), IIIQi (with antimycin A) and IIIQO (with myxothiazol). Assay was finally calibrated with known amounts of H2O2 (steps of 300 nM), in the presence of all relevant compounds, including AOL. The control test of the absence of effect of AOL on the Amplex Red assay itself and NAD(P)H oxidase ROS/H2O2 production was carried out in the absence of cardiac mitochondria and the presence of NAD(P)H oxidase (EC 1.6.3.3, 5 mU/mL, Sigma) and NADH (100 μM) solutions.
The specificity of AOL was further tested in vitro using the peroxidase-Amplex Red system utilized for the measurement of ROS/H2O2 by mitochondria, which in fact measures the appearance of H2O2 by the oxidation of Amplex Red to the fluorescent resorufin (see FIG. 4). In the absence of mitochondria and by adding instead a H2O2-producing system to the measuring system, it was possible to test the effect of AOL on this system. This has been carried out by using commercial NAD(P)H oxidase which produces H2O2 in the presence of added NAD(P)H and measuring the reduction of Amplex Red to resorufin (FIG. 4).
Isolated mitochondria (0.1 mg/mL) were incubated in the same experimental buffer than previously, supplemented with 15 μM Amplex Red and 10 μg/mL HRP. Glutamate (5 mM)/malate (2.5 mM) together with succinate (5 mM) were used as complex I and complex II substrates, respectively. Experiments were conducted under non-phosphorylating conditions in the presence of 15 μM atractyloside. Afterwards, rotenone (1.5 μM), antimycin A (2 μM), and myxothiazol (0.2 μM) were sequentially added to inhibit the redox centers within the electron transfer chain (see FIG. 2), namely sites IQ, IF (with rotenone), IIIQi (with antimycin A) and IIIQO (with myxothiazol). Assay was finally calibrated with known amounts of H2O2 (steps of 300 nM), in the presence of all relevant compounds, including AOX. The control test of the absence of effect of AOL, AOX and Oltipraz on the Amplex Red assay itself and NAD(P)H oxidase […] production was carried out in the absence of cardiac mitochondria and the presence of NAD(P)H oxidase (EC 1.6.3.3, 5 mU/mL, Sigma) and NADH (100 μM) solutions.
The mechanism of action of AOX was further tested in vitro using the peroxidase-Amplex Red system utilized for the measurement of ROS/H2O2 by mitochondria, which in fact measures the appearance of H2O2 by the oxidation of Amplex Red to the fluorescent resorufin (FIG. 22). In the absence of mitochondria and by adding instead a H2O2-producing system to the assay, it was possible to test the effect of AOX on this non-mitochondrial superoxide/H2O2 production. This has been carried out by using commercial NAD(P)H oxidase which produces H2O2 in the presence of added NAD(P)H and measuring the reduction of Amplex Red to resorufin. […]

site IQ = test: ROS/H2O2 production, site targeted individually (96-well Amplex Red), 10 mM succinate alone; type: biochemical, rat; details: 0 to 80 μM; effect at concentrations as low as 2.5 μM
Description: After freshly isolating mitochondria from rat heart, then measuring protein quantity of the mitochondrial suspension, H2O2 production in response to the exogenous addition of increasing concentrations of AOL, AOX and Oltipraz was measured fluorimetrically with Amplex Red and horseradish peroxidase (HRP).
The two major sites of mitochondrial ROS/H2O2 production were targeted individually using the combination of succinate (energy substrate of respiratory complex 2) and known inhibitors of respiratory chain, namely for site IQ, 10 mM succinate alone (CCCP as positive control) and for site IIIQouter, 10 mM succinate, 4 μM rotenone and 2.5 μM antimycin A (myxothiazol as positive control). These “reaction” solutions were designed to generate maximal rates of ROS/H2O2 production predominantly from a single site within the chain (Quinlan et al. 2013. Redox Biol. 1:304-12).
For measurement, a working solution of 50 μM Amplex red reagent and 20 μg/ml HRP was mixed to the reaction buffer into the corresponding wells of a 96-well plate (Greiner 96 F-bottom), in the absence or presence of increasing concentrations (from 0 to 80 μM) of AOL, AOX or Oltipraz. Addition of mitochondria to a final concentration of 0.125 mg/mL per well initiated the assay. The appropriate total volume per microplate well was 200 μL.
Plates were incubated in the dark at room temperature for 20-25 minutes. A double orbital shaking (100 rpm-3 seconds) was applied before reading the endpoint fluorescence values on a CLARIOstar plate reader (BMG LABTECH GmbH, Germany). In fact, H2O2 reacts with Amplex Red in a 1:1 stoichiometry, yielding the fluorescent compound resorufin that was analyzed using the following optic settings (excitation wavelength at 546-20 nm; emission at 600-40 nm; gain: 750).
Also, an H2O2 standard curve, with concentrations ranging from 0 to 5 μM, was prepared in the experimental buffer that consisted in (in mM): 140 sucrose, 100 KCl, 1 EGTA, 20 MgCl2, 10 KH2PO4, and 1 g/L (w/v) BSA essentially fatty acid free (pH 7.2). […]

Compound	metastatic activity (cells crossing the membrane) (H460 carcinoma cells)	effect on ROS measurement with NAD(P)H oxidase (NAD(P)H oxidase)	inhibition of ROS production in site IQ (site IQ)
CC(=O)N[C@@H](CS)C(=O)O [NAC, N-acetyl cysteine]	huge increase in metastatic activity	–	–
Cc1c(-c2cnccn2)ssc1=S [Oltipraz]	–	constantly decreased the amount of ROS measured	only a poor effect
